Laboratory results from patent US20210144990A1, “IMPROVED ULTRA-FAST COOLING SYSTEM AND METHODS OF USE” (priority 2018, published 2021).

Tested on: corneal endothelial cells
Assay: Post-thaw quality of pig corneal endothelium after ultra-fast cooling, with or without DMSO in DMEM
Assay type: cell-based
Details: pig corneal pieces cooled to -196 degrees C by liquid nitrogen blade jet, thawed under 37 degrees C water jet
Source text: Small samples excised from pig corneas were cooled from room temperature (ambient) to −196 degrees C. using an ultra-fast cooling system of the present invention that contains a single liquid nitrogen blade jet and two gas nitrogen blade jets. Pig corneas were processed and cut into approx. 0.5 cm×0.5 cm×0.5 cm pieces, and each piece maintains a full layer of endothelium, i.e., a single layer of corneal endothelial cells of approximately 10 microns in size, on one surface. The tissues are first placed in standard holding media, Dulbecco's Modified Eagle Media (DMEM), at 4 degrees C. A sample holder was made with a holding cavity of 0.5 cm in depth and with a 20 microns thick sheet of stainless steel as its cover sheet. […] The corneal endothelium of each tissue faced to the cover sheet and directly contacted its inner surface, to achieve maximum cooling rate possibly provided by the liquid nitrogen jet for the endothelium and prevent exposure of the cells to liquid nitrogen flows. […] The post-thaw quality of the corneal endothelia was evaluated by quantification of endothelial cell number based on differential interference contrast light microscopy. The cell health was assessed by using cell circularity as a surrogate marker using differential interference contrast light microscopy. […]

C[S+](C)[O-] [DMSO, dimethyl sulfoxide]
post-thaw endothelial cell viability (cell count vs fresh tissue, FIG. 19D) (10% DMSO in DMEM): comparable to readings of the fresh corneas
post-thaw endothelial cell viability (cell count vs fresh tissue, FIG. 19D) (20% DMSO in DMEM): impacted the cell viability due to toxicity
